Measurements published in article PMC8989696, “Characterization of furathiocarb metabolism in in-vitro human liver microsomes and recombinant cytochrome P450 enzymes” (Toxicology Reports, 2022).

Tests used:
Type in all cases: in vitro ADME
CYP1A2 = target: T1, CYP1A2 (Homo sapiens, UniProt P05177); assay: biochemical
T1 construct: from tissue; host or cells: pooled human liver microsomes (n = 10 donors)
T1 sequence (P05177 1-516): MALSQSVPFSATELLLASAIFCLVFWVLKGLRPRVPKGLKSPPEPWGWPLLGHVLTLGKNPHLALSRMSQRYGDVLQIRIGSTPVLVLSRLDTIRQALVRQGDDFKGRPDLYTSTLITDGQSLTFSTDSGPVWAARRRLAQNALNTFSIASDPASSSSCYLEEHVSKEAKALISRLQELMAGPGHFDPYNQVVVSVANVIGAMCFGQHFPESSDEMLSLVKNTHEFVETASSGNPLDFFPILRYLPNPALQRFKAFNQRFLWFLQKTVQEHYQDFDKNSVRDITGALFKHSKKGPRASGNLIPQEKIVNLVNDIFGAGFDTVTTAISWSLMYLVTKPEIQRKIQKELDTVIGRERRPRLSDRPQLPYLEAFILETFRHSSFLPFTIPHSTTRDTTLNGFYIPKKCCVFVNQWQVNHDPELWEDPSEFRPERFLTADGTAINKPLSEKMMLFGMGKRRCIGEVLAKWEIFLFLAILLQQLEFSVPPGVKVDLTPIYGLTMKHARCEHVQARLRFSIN
Method: (§1) N-in-one (“cocktail”) assay for measuring major CYP activities simultaneously, [55], [56] was employed to investigate human CYP-furathiocarb inhibitory interactions in pooled human hepatic microsomes. Furathiocarb (ﬁnal concentrations in the incubation mixture were 1, 5, 25, 50, and 100 µM) was added to the incubation mixture. The N-in-one was used earlier for the study of pesticide interactions and the details of the incubations with furathiocarb are described in Supplementary materials.
(§2) The kinetic parameters Vmax and Km were calculated by nonlinear regression. Bivariate linear Pearson’s correlation coefﬁcients (r2) were calculated between metabolite formations and model activities in the livers. GraphPad Prism 9 Software (Inc., San Diego, CA) Prism 9.0.0 (San Diego, CA) was used for kinetic parameters and correlation coefﬁcients analysis. The IC50 values were determined by linear regression analysis using OriginPro 2020 (MicroCal Software, Inc., Northampton, MA.
(§3) N-in-one assay was performed to investigate human CYP-furathiocarb inhibitory interactions. Furathiocarb (ﬁnal concentrations in the incubation mixture were 1, 5, 25, 50, and 100 µM) was added to the incubation mixture.
(§4) The N-in-one assay, analytical method and authentic standards have been described previously (Abass and Pelkonen 2013; Tolonen et al. 2007; Turpeinen et al. 2005). […]

CYP2C19 = target: T2, CYP2C19 (Homo sapiens, UniProt P33261); assay: biochemical
T2 construct: from tissue; host or cells: pooled human liver microsomes (n = 10 donors)
Method: as §1, §2, §3, §4

[1] = test system: UDP-glucuronosyl transferase (UGT); assay: Incubation with human hepatic homogenate fortified with UDP-glucuronic acid (phase II metabolites); details: data not illustrated
CYP2B6 [2] = target: T3, CYP2B6 (Homo sapiens, UniProt P20813); assay: biochemical; parameters: from tissue; host or cells: pooled human liver microsomes (n = 10 donors)
T3 sequence (P20813 1-491): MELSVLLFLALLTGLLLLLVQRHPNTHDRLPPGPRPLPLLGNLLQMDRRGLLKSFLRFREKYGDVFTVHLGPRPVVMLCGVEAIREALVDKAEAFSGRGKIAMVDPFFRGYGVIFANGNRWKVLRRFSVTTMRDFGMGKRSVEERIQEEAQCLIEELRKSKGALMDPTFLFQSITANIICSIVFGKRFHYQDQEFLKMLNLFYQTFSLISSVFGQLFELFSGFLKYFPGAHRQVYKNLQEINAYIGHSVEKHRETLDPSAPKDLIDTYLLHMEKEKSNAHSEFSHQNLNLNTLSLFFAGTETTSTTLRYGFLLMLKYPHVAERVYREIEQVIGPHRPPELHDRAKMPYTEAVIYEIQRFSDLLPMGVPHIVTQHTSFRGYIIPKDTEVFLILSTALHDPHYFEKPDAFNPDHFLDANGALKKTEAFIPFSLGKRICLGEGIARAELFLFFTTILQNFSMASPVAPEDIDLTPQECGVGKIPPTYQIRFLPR
Method: as §1, §2, §3, §4

CYP2B6 [3] = target: T3, CYP2B6; assay: in vitro; parameters: purchased BD Biosciences Discovery Labware (Bedford, MA); host or cells: baculovirus-infected insect cells; details: pH 7.4, Carbofuran metabolic pathway, rCYP2B6
Method: Furathiocarb was incubated with recombinant CYPs (rCYP). The incubation mixture contained rCYPs (50 pmol CYP per ml), 100 µM furathiocarb, and 1 mM NADPH in 200 µl 0.1 M phosphate buffer (pH 7.4). Incubation procedures and chromatographic separation are presented in Supplementary materials.
Enzyme kinetic parameters of both the microsomal samples and rCYP enzymes were measured. The incubation mixture contained furathiocarb (2.5, 10, 25, 50, 150 and 300 µM). Incubation times were 20 and 30 min for microsomal samples and rCYPs, respectively. Otherwise incubation mixtures and methods were the same as in metabolite identification. The rate of sum of furathiocarb metabolite formation was linear at least up to 0.15 mg protein/ml and 30 min incubation time in the standard experimental conditions.
To measure the main furathiocarb metabolites of recombinantly expressed CYP enzymes (rCYPs), the standard incubation mixture (200 µl) contained 0.1 M phosphate buffer (pH 7.4), 1 mM NADPH, 100 µM […], and rCYPs (50 pmol CYP per ml). Incubations were carried out according to the manufacturer’s instructions. Shortly, the reaction was started by adding recombinant enzymes to the preincubated eaction mixture (2 min at +37 ◦C), mixed gently and incubated for 30 min at +37 ◦C in an incubator block without agitation. […]

T2 sequence (P33261 whole entry): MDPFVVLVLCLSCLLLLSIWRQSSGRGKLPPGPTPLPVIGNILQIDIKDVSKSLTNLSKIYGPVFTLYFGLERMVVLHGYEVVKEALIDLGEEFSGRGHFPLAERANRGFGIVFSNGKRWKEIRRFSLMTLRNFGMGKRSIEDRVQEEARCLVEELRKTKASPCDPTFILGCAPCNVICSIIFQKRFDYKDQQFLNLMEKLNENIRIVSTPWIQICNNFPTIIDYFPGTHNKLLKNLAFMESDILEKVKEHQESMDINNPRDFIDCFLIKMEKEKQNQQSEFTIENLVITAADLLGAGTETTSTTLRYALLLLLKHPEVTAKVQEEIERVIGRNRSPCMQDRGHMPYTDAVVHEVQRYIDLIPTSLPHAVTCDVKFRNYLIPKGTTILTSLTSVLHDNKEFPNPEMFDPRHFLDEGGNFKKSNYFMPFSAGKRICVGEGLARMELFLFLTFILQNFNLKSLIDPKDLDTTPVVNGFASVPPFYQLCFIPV

CCCCOC(=O)N(C)SN(C)C(=O)Oc1cccc2c1OC(C)(C)C2 [furathiocarb, Furathiocarb]
IC50 (CYP1A2): 16.5 to 18.5 µM
IC50 (CYP2C19): 16.5 to 18.5 µM
Phase II metabolites [1]: no phase II metabolites were detected
IC50 (CYP2B6 [2]): 16.5 to 18.5 µM
Km at 30 min (CYP2B6 [3]): 9.7 ± 3.9 µM
